Experimental data published in patent US11213512B2, “Bis-amino acid based compound and use thereof” (THE CURATORS OF THE UNIVERSITY OF MISSOURI, priority 2016, dated 2022).

Legend:
[1] = Aggregate detection by dynamic light scattering; type: physicochemical; details: 10.(HCl)2 at concentrations between 10 μM and 1 mM
Source text: Amphiphiles are known to enhance the permeability of bacterial boundary layers (Lambert and Hammond, Biochem. Biophys. Res. Commun. 1973, 54, 796-799; and Hancock, Lancet 1997, 349, 418-422). Amphiphiles are also known to form aggregates in aqueous solution. An effort to detect aggregates of 10 was made by using dynamic light scattering (DLS). Compound 10 was deemed to be the most amphiphilic (bola-amphiphilic) of the structures owing to the estimated maximal spacing of the amino groups (Fuhrhop, et al., J. Am. Chem. Soc. 1993, 115, 1600-1601). Solutions of 10.(HCl)2 at concentrations between 10 μM and 1 mM were prepared and examined by dynamic light scattering methods. At the highest concentration, it appeared that some aggregates formed, but the counts were low and the results were considered inconclusive.

[2] = tested on: Staphylcoccus aureus 1199B; test: Checkerboard combination with norfloxacin or ethidium bromide; type: cell-based, Staphylococcus aureus; details: compound at ½ MIC or 2 μM; additive not stated
Protocol: Two different strains of E. coli (Gram-negative) were used. The laboratory strain of E. coli, K-12 (ATCC Accession No. 700926), was used for preliminary MIC determinations. The tetracycline resistant strain of E. coli (Tet^R) was prepared by transforming competent JM109 E. coli (Promega) with the pBR322 plasmid (Carolina Biologicals) using the manufacturers protocol. This plasmid contains two resistance genes: the tetA gene expresses the tetracycline resistance TetA efflux pump (Sapunaric and Levy, Microbiol. 2005, 151, 2315-2322) and the amp^R gene expresses a β-lactamase enzyme (Bolivar, et al; Gene 1977, 2, 95-113) that cleaves the four membered ring of penicillin derivatives. The resulting E. coli, which we designate Tet^R E. coli, is both tetracycline and ampicillin resistant. The TetA efflux pump belongs to the major facilitator superfamily (MFS), spans the cytoplasmic membrane, and transports tetracycline from the cell cytoplasm to the periplasmic space (Thanassi, et al., J. Bacteriol. 1995, 177, 998-1007). This active efflux utilizes the proton gradient as an energy source (Levy, Antimicrob. Agents Chemother. 1992, 36, 695-703). […]
Similar experiments to those described in Example 7 above were conducted, wherein the antimicrobial activity of various compounds was determined against Staphylcoccus aureus 1199B. […]

For `Cl.Cl.N[C@H](Cc1c[nH]c2ccccc12)C(=O)NCCCCCCCCCCCCNC(=O)[C@@H](N)Cc1c[nH]c2ccccc12` [Compound 10, (S)-1-((12-((R)-2-Ammonio-3-(1H-indol-3-yl)propanamido)dodecyl)amino)-3-(1H-indol-3-yl)-1-oxopropan-2-aminium chloride], the “aggregate formation in aqueous solution (DLS)” value [1] was “inconclusive” and the “activity recovered (fold)” value [2] was 128 fold.
